Experimental data reported in patent publication US4409314A, “Light-sensitive compounds, light-sensitive mixture, and light-sensitive copying material prepared therefrom” (Hoechst Aktiengesellschaft, priority 1980, dated 1983).
Read-outs that look alike come from different tables or passages of the source.

What was measured:
[1] = format: physicochemical; conditions: for Solubility (%): 4320 min; for Appearance of solution in ethylene glycol monomethyl ether: no precipitations even after 3 days
Procedure: (§1) In each case, 1 to 4 g of crystalline diazo compound were stirred in 25 g of ethylene glycol monomethyl ether, which is the most important solvent in coating technology, for 2 hours at room temperature and the mixture was allowed to stand for a further 70 hours without stirring, in order to complete the crystallization of possible amorphous constituents. The mixture was then filtered off with suction, and the filter residue was washed successively with 10 ml of methanol and 10 ml of ether, dried in vacuo, and its weight was determined. The solubilities in ethylene glycol monomethyl ether, listed in Table 3, were calculated from the difference relative to the quantity employed.

[2] = Solubility in n-butyl acetate; format: physicochemical; conditions: 1 g crystalline diazo compound stirred 2 hours in 25 g n-butyl acetate
Procedure: as §1
In a further widely used solvent, namel
1 g of the crystalline diazo compound was stirred for 2 hours in 25 g of
nbutyl acetate. The mixtures were then worked up as in Example 1.

[3] = 3 g of compound in 25 g solvent

SMILES	Solubility (%) [1]	also measured
COC(=O)c1ccc(OS(=O)(=O)c2cccc3c2C=CC(=[N+]=[N-])C3=O)cc1OS(=O)(=O)c1cccc2c1C=CC(=[N+]=[N-])C2=O [Compound 10]	0.87%	
CCOCCOC(=O)c1cc(OS(=O)(=O)c2cccc3c2C=CC(=[N+]=[N-])C3=O)cc(OS(=O)(=O)c2cccc3c2C=CC(=[N+]=[N-])C3=O)c1 [Compound 16]	5.0%	
CCCCC(=O)c1ccc(OS(=O)(=O)c2cccc3c2C=CC(=[N+]=[N-])C3=O)cc1OS(=O)(=O)c1cccc2c1C=CC(=[N+]=[N-])C2=O [Compound 2]	> 10.7%	Appearance of solution in ethylene glycol monomethyl ether [1, 3]: clear
CCCCCCCCCCCCOC(=O)c1ccc(OS(=O)(=O)c2cccc3c2C=CC(=[N+]=[N-])C3=O)cc1OS(=O)(=O)c1cccc2c1C=CC(=[N+]=[N-])C2=O [Compound 17]	7.5%	Solubility (%) in butyl acetate [2]: 2.03%
CC(CC(=O)c1ccc(OS(=O)(=O)c2cccc3c2C=CC(=[N+]=[N-])C3=O)cc1OS(=O)(=O)c1cccc2c1C=CC(=[N+]=[N-])C2=O)CC(C)(C)C (stereo not shown) [Compound 5]	> 10.7%	Appearance of solution in ethylene glycol monomethyl ether [1, 3]: clear
CC(CC(=O)c1ccc(OS(=O)(=O)C2=CC(=[N+]=[N-])C(=O)c3ccccc32)cc1OS(=O)(=O)C1=CC(=[N+]=[N-])C(=O)c2ccccc21)CC(C)(C)C (stereo not shown) [Compound 6]	10.5%	
CCOCCOC(=O)c1ccc(OS(=O)(=O)c2cccc3c2C=CC(=[N+]=[N-])C3=O)c(OS(=O)(=O)c2cccc3c2C=CC(=[N+]=[N-])C3=O)c1 [Compound 14]	4.3%	
[N-]=[N+]=C1C=Cc2c(cccc2S(=O)(=O)Oc2ccc(C(=O)c3ccccc3)c(OS(=O)(=O)c3cccc4c3C=CC(=[N+]=[N-])C4=O)c2OS(=O)(=O)c2cccc3c2C=CC(=[N+]=[N-])C3=O)C1=O [V, tris-1,2-naphthoquinone-2-diazide-5-sulfonic acid ester of 2,3,4-trihydroxy-benzophenone, reference compound]	1.0%	Solubility (%) in butyl acetate [2]: 0.50%
CCCCCCCCCCCCCCCC(=O)c1ccc(OS(=O)(=O)C2=CC(=[N+]=[N-])C(=O)c3ccccc32)cc1OS(=O)(=O)C1=CC(=[N+]=[N-])C(=O)c2ccccc21 [Compound 8]		Solubility (%) in butyl acetate [2]: 1.75%
CCCCCCCCCCCCOC(=O)c1cc(OS(=O)(=O)c2cccc3c2C=CC(=[N+]=[N-])C3=O)cc(OS(=O)(=O)c2cccc3c2C=CC(=[N+]=[N-])C3=O)c1 [Compound 18]	4.6%	
CCCCC(CC)C(=O)c1ccc(OS(=O)(=O)C2=CC(=[N+]=[N-])C(=O)c3ccccc32)cc1OS(=O)(=O)C1=CC(=[N+]=[N-])C(=O)c2ccccc21 (stereo not shown) [Compound 4]	4.3%	
CCCCC(CC)C(=O)c1ccc(OS(=O)(=O)c2cccc3c2C=CC(=[N+]=[N-])C3=O)cc1OS(=O)(=O)c1cccc2c1C=CC(=[N+]=[N-])C2=O (stereo not shown) [Compound 3]	> 13.8%	Appearance of solution in ethylene glycol monomethyl ether ([1]; 4 g of compound in 25 g solvent): clear
CC(=O)c1ccc(OS(=O)(=O)c2cccc3c2C=CC(=[N+]=[N-])C3=O)cc1OS(=O)(=O)c1cccc2c1C=CC(=[N+]=[N-])C2=O [Compound 1]	1.03%	
CC(C)CCOC(=O)c1ccc(OS(=O)(=O)C2=CC(=[N+]=[N-])C(=O)c3ccccc32)cc1OS(=O)(=O)C1=CC(=[N+]=[N-])C(=O)c2ccccc21 [Compound 11]	2.3%	
CCOCCOC(=O)c1ccc(OS(=O)(=O)C2=CC(=[N+]=[N-])C(=O)c3ccccc32)c(OS(=O)(=O)C2=CC(=[N+]=[N-])C(=O)c3ccccc32)c1 [Compound 15]	3.7%	
CC(C)CCOC(=O)c1ccc(OS(=O)(=O)c2cccc3c2C=CC(=[N+]=[N-])C3=O)c(OS(=O)(=O)c2cccc3c2C=CC(=[N+]=[N-])C3=O)c1 [Compound 13]	4.7%	
CCCCCCCCCCCCCCCC(=O)c1ccc(OS(=O)(=O)c2cccc3c2C=CC(=[N+]=[N-])C3=O)cc1OS(=O)(=O)c1cccc2c1C=CC(=[N+]=[N-])C2=O [Compound 7]		Solubility (%) in butyl acetate [2]: 1.03%
